Consider 47 compounds from US11931343B2 (ARCUS BIOSCIENCES, INC., priority 2018, dated 2024).

The assay concerns the target T1, human CD73 (Homo sapiens, UniProt P21589).
T1 sequence (P21589 27-549): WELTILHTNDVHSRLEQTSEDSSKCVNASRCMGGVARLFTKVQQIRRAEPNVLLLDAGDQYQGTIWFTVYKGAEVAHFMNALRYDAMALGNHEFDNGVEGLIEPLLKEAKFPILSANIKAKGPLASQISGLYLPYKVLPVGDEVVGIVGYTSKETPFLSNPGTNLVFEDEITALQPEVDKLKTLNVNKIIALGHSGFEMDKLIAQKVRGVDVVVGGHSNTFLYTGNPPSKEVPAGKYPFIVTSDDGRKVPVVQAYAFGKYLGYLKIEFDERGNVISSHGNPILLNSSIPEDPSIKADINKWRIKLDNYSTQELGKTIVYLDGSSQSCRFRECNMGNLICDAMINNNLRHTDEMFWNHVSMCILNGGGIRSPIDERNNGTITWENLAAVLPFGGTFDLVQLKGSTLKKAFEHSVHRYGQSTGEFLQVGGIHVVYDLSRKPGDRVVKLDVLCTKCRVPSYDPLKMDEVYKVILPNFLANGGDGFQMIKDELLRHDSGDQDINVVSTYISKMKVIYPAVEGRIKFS
Put plainly: Inhibition of Ecto-5′-nucleotidase (CD73) activity in CHO-CD73 cells, phosphate release from AMP. To be noted: CHO-K1 cells stably transfected with human CD73; 25 μM AMP; 50 minutes, 37° C.; read-out: Potency: CD73 IC50. Format: cell-based.

For the compound `N#Cc1ccc(Cn2nc(C(=O)O)cc2-c2cc(F)c3nnn(-c4ccc5[nH]c(=O)[nH]c5c4)c3c2)cc1` [Example 322], the IC50 (in general, the concentration that gives 50% inhibition) was over 1000 nM. The result for `N#Cc1ccc(Cn2ncc(Cl)c2-c2ccc3nnn(-c4ccc5[nH]c(=O)[nH]c5c4)c3c2)cc1` [Example 323] reads 100 to 1000 nM; that for `N#Cc1ccc(Cn2nccc2-c2cnc3c(c2)c(-c2ccc4[nH]c(=O)[nH]c4c2)nn3CCO)cc1` [Example 324], over 1000 nM. The result for `COC(=O)Cn1nc(-c2ccc3[nH]c(=O)[nH]c3c2)c2cc(-c3ccnn3Cc3ccc(C#N)cc3)cnc21` [Example 325] reads over 1000 nM; that for `N#Cc1ccc(Cn2ncc(Cl)c2-c2cc(F)c3nnn(-c4ccc5[nH]c(=O)[nH]c5c4)c3c2)cc1` [Example 326], 100 to 1000 nM; that for `Cn1nc(-c2ccc3[nH]c(=O)[nH]c3c2)c2cc(-c3ccnn3Cc3ccc(C#N)cc3)ncc21` [Example 327], 100 to 1000 nM.

Take `N#Cc1ccc(Cn2cccc2-c2cc(F)c3nnn(-c4ccc5[nH]c(=O)[nH]c5c4)c3c2)cc1` [Example 328]: the IC50 was in the range of 100 to 1000 nM. Turning to `N#Cc1ccc(Cn2nccc2-c2cnc3c(F)nn(-c4ccc5[nH]c(=O)[nH]c5c4)c3c2)cc1` [Example 329], the half-inhibitory concentration (IC50) is 100 to 1000 nM. Regarding `N#Cc1ccc(Cn2ncc(C#N)c2-c2cc(F)c3nnn(-c4ccc5[nH]c(=O)[nH]c5c4)c3c2)cc1` [Example 330], the IC50 is over 1000 nM. The value for `N#Cc1ccc(Cn2ncc(F)c2-c2cc(F)c3nnn(-c4ccc5[nH]c(=O)[nH]c5c4)c3c2)cc1` [Example 331] was 100 to 1000 nM; that for `Cn1c(=O)n(-c2ccc3cn[nH]c3c2)c2cc(-c3ccnn3Cc3ccc(C#N)cc3)cnc21` [Example 332] was over 1000 nM.

Consider `N#Cc1ccc(Cn2c(-c3cc(F)c4nnn(-c5ccc6[nH]c(=O)[nH]c6c5)c4c3)c[nH]c2=O)cc1` [Example 333], for which the IC50 lay in the range of 100 to 1000 nM. The value for `Cc1cnn(Cc2ccc(C#N)cc2)c1-c1cc(F)c2nnn(-c3ccc4[nH]c(=O)[nH]c4c3)c2c1` [Example 334] was 100 to 1000 nM; that for `N#Cc1ccc(Cn2nccc2-c2ccc3cnc(-c4ccc5[nH]c(=O)[nH]c5c4)n3c2)c(F)c1` [Example 335] was over 1000 nM. The value for `N#Cc1ccc(Cn2nccc2-c2cnc3c(CO)nn(-c4ccc5[nH]c(=O)[nH]c5c4)c3c2)cc1` [Example 336] was 100 to 1000 nM; that for `N#Cc1ccc(Cn2nccc2-c2cnc3c(N)nn(-c4cc(F)c5[nH]c(=O)[nH]c5c4)c3c2)c(F)c1` [Example 337] was 100 to 1000 nM; that for `N#Cc1ccc(Cn2nccc2-c2cc3c(cnn3-c3ccc4cn[nH]c4c3)c(=O)[nH]2)c(F)c1` [Example 338] was 100 to 1000 nM.

As for `N#Cc1ccc(Cn2nccc2-c2cnc3c(N)nn(-c4cc5[nH]c(=O)[nH]c5cc4F)c3c2)c(F)c1` [Example 339], the IC50 is under 100 nM. The result for `Cn1nc(-c2ccc3cn[nH]c3c2)c2cc(-c3ccnn3Cc3ccc(C#N)cc3)cnc21` [Example 341] reads 100 to 1000 nM; that for `N#Cc1ccc(Cn2nccc2-c2cnc3c(c2)c(-c2ccc4cn[nH]c4c2)nn3CCc2ccccc2)cc1` [Example 342], over 1000 nM; that for `N#Cc1ccc(Cn2nccc2-c2cc(F)c3nnn(-c4ccc5[nH][nH]c(=O)c5c4)c3c2)cc1` [Example 343], 100 to 1000 nM.

Turning to `N#Cc1ccc(Cn2nccc2-c2cc(F)c3nnn(-c4ccc5c(CO)n[nH]c5c4)c3c2)cc1` [Example 344], the IC50 was in the range of 100 to 1000 nM. The result for `N#Cc1ccc(Cn2nccc2-c2cc(F)c3nnn(-c4ccc5c(N)n[nH]c5c4)c3c2)cc1` [Example 345] reads 100 to 1000 nM; that for `N#Cc1ccc(Cn2nccc2-c2cc3c(cn2)nnn3-c2ccc3c(=O)[nH][nH]c3c2)cc1` [Example 346], 100 to 1000 nM.

As to `N#Cc1ccc(Cn2nccc2-c2cc(F)c3nnn(-c4ccc5c(CNS(N)(=O)=O)n[nH]c5c4)c3c2)cc1` [Example 347], the IC50 was over 1000 nM.

In the case of `N#Cc1ccc(Cn2nccc2-c2cc(F)c3nnn(-c4ccc5c(CC(=O)O)n[nH]c5c4)c3c2)cc1` [Example 348], the IC50 was over 1000 nM. The value for `N#Cc1ccc(Cn2nccc2-c2cc(F)c3nnn(-c4ccc5c(CCO)n[nH]c5c4)c3c2)cc1` [Example 349] was over 1000 nM. The result for `N#Cc1ccc(Cn2nccc2-c2cc(F)c3nnn(-c4ccc5c(=O)[nH][nH]c5c4)c3c2)cc1` [Example 350] reads 100 to 1000 nM; that for `N#Cc1ccc(Cn2nccc2-c2cc(F)c3nnn(-c4ccc5c(CNC(=O)CN)n[nH]c5c4)c3c2)cc1` [Example 351], over 1000 nM; that for `N#Cc1ccc(Cn2nccc2-c2cc3c(nnn3-c3ccc4cn[nH]c4c3)c(=O)[nH]2)cc1` [Example 352], under 100 nM.

As for `COCc1n[nH]c2cc(-n3nnc4c(F)cc(-c5ccnn5Cc5ccc(C#N)cc5)cc43)ccc12` [Example 353], the IC50 was over 1000 nM. The value for `N#Cc1ccc(Cn2nccc2-c2cc(F)c3nnn(-c4ccc(O)cc4)c3c2)cc1` [Example 354] was over 1000 nM; that for `N#Cc1ccc(Cn2nccc2-c2cc(F)c3nnn(-c4ccc5c(COCCO)n[nH]c5c4)c3c2)cc1` [Example 355] was over 1000 nM.

In the case of `Cn1c(-c2ccnn2Cc2ccc(C#N)cc2)cc2c(nnn2-c2ccc3cn[nH]c3c2)c1=O` [Example 356], the IC50 was 100 to 1000 nM. As to `COc1nc(-c2ccnn2Cc2ccc(C#N)cc2)cc2c1nnn2-c1ccc2cn[nH]c2c1` [Example 357], the IC50 fell in the range of 100 to 1000 nM. For the compound `Cc1nn(-c2ccc3cn[nH]c3c2)c2cc(-c3ccnn3Cc3ccc(C#N)cc3)[nH]c(=O)c12` [Example 358], the IC50 is 100 to 1000 nM. Regarding `N#Cc1ccc(Cn2nccc2-c2cc3c(nnn3-c3ccc4[nH]c(=O)[nH]c4c3)c(=O)[nH]2)cc1` [Example 359], the IC50 lay in the range of 100 to 1000 nM. The result for `Cc1nn(-c2ccc3cn[nH]c3c2)c2cc(-c3ccnn3Cc3ccc(C#N)cc3)c[n+]([O-])c12` [Example 360] reads 100 to 1000 nM; that for `Cn1nc(-c2ccc3cn[nH]c3c2)c2cc(-c3ccnn3Cc3ccc(C#N)cc3)c[n+]([O-])c21` [Example 361], over 1000 nM. For the compound `N#Cc1ccc(Cn2nccc2-c2cc3c(c(N)nn3-c3ccc4cn[nH]c4c3)[n+]([O-])c2)cc1` [Example 362], the IC50 lay in the range of 100 to 1000 nM. The result for `N#Cc1ccc(Cn2nccc2-c2cc3c(c[n+]2[O-])nnn3-c2ccc3cn[nH]c3c2)cc1` [Example 363] reads 100 to 1000 nM; that for `N#Cc1ccc(Cn2nccc2-c2cnc3c(N)nn(-c4cc5[nH]ncc5cc4F)c3c2)cc1` [Example 364], under 100 nM. For the compound `N#Cc1ccc(Cn2nccc2-c2cc3c(c(N)nn3-c3ccc4[nH]c(=O)[nH]c4c3)[n+]([O-])c2)cc1` [Example 365], the IC50 was over 1000 nM.

Consider `[O-][n+]1cc(Cl)ccc1Cn1nccc1-c1cc(Cl)c2nnn(-c3ccc4cn[nH]c4c3)c2c1` [Example 366], for which the IC50 was under 100 nM. The value for `N#Cc1ccc(Cn2nccc2-c2cc(F)c3nnn(-c4ccc5cn[nH]c5n4)c3c2)cc1` [Example 367] was under 100 nM; that for `O=c1[nH]c2ccc(-n3nnc4c(Cl)cc(-c5ccnn5Cc5ccc(Cl)c[n+]5[O-])cc43)cc2[nH]1` [Example 369] was 100 to 1000 nM. As to `CCc1nn(-c2ccc3cn[nH]c3c2)c2cc(-c3ccnn3Cc3ccc(C#N)cc3)cnc12` [Example 370], the IC50 was over 1000 nM.
